Test results from PMC6937593, “Anti-metastatic Inhibitors of Lysyl Oxidase (LOX): Design and Structure–Activity Relationships” (Journal of Medicinal Chemistry, 2019).
Several values for one entry are separate records, joined by “and”; a condition that tells them apart may be missing. Equal entries are not always repeated. Structures can show the parent of a compound that is named as a salt. Where two headings read alike, the source gives them in different places. Blank lines part the entries; values can stand above or below the molecule they belong to.

What was measured:
[1] = biological target: T1, LOX (Sus scrofa, UniProt P45845); assay: LOX enzyme activity assay (HRP-coupled fluorescent, cadaverine substrate); type: biochemical, pig; conditions: for fold more potent than HTS hit 2a (LOX IC50): vs 2a;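 on all read-outs here: LOX isolated from porcine skin, nine-point dilution series starting at 100 µM, 20 min preincubation with enzyme, BAPN serving as positive control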
T1 construct: LOX enzyme was extracted from pig skin by the method of Shackleton and Hulmes; from tissue; host or cells: pig skin
T1 sequence (P45845 1-249): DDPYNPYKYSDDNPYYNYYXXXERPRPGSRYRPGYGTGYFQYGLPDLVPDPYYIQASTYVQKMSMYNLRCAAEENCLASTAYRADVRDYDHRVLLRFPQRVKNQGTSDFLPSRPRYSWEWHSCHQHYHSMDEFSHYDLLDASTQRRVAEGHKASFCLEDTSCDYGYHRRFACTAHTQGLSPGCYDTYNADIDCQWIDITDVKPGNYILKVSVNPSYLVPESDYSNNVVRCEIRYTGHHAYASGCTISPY

[2] = biological target: T2, DAO (Sus scrofa, UniProt Q9TRC7); assay: biochemical; conditions: n = 2 individual values
T2 construct: purchased Sigma
T2 sequence (Q9TRC7 25-755): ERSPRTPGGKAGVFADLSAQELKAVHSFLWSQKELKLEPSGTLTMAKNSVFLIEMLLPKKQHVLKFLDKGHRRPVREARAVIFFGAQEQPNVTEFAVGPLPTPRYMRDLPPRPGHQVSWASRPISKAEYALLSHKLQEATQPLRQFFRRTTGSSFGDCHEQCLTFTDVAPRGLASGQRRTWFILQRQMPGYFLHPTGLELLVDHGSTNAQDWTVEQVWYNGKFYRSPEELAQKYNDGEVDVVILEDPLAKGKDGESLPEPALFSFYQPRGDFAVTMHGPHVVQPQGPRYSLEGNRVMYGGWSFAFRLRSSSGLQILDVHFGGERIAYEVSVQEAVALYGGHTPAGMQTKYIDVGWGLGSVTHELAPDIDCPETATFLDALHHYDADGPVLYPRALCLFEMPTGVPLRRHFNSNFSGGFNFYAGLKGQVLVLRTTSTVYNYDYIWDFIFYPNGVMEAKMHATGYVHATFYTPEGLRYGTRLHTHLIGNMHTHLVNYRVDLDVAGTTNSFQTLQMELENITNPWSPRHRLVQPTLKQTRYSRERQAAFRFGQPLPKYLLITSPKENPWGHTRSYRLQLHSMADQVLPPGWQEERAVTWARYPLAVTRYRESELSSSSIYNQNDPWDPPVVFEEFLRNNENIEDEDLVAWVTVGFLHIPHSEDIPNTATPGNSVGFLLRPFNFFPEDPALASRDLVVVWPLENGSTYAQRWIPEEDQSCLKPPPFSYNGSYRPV

[3] = In vivo PK in mice; design: species or system mouse; conditions: mouse plasma, single oral gavage dose 50 mg/kg
[4] = MLM stability assay; type: in vitro ADME, mouse; conditions: percentage of compound remaining after 30 min; 10 μM
[5] = n ≥ 2, n = 2: individual values, n > 2: geometric mean [95% CI], 20 min preincubation, read-out: LOX IC50

Structure (SMILES): CS(=O)(=O)c1cc(-c2ccccc2)cc(S(=O)(=O)c2ccc(CN)s2)c1 [9f]
IC50 [2]: > 100 µM

Structure (SMILES): NCc1ccc(Sc2ccccc2)s1 [4b, (5-(Phenylthio)thiophen-2-yl)methanamine Hydrochloride]
IC50 [1, 5]: 14 µM and 27 µM

Structure (SMILES): CCNS(=O)(=O)c1ccc(CN)s1 [2c, 5-(Aminomethyl)-N-ethylthiophene-2-sulfonamide]
IC50 [1, 5]: 27 µM and 31 µM

Structure (SMILES): NCc1ccc(S(=O)(=O)N2CCCc3ccccc32)s1 [2h, (5-(3,4-Dihydroquinolin-1(2H)-ylsulfonyl)thiophen-2-yl)methanamine]
IC50 [1, 5]: 2.5 µM and 2.7 µM

Structure (SMILES): NCc1ccc(S(=O)(=O)N2CCC[C@H]2CO)s1 [2e, (S)-(1-(5-(Aminomethyl)thiophen-2-ylsulfonyl)pyrrolidin-2-yl)methanol]
IC50 [1, 5]: 3.1 µM and 3.3 µM

Structure (SMILES): CN(C)S(=O)(=O)c1ccc(CN)s1 [2b, 5-(Aminomethyl)-N,N-dimethylthiophene-2-sulfonamide]
IC50 [1, 5]: 70 µM and 72 µM

Structure (SMILES): NCc1ccc(S(=O)(=O)c2ccc3ccccc3c2)s1 [3g, (5-(Naphthalen-2-ylsulfonyl)thiophen-2-yl)methanamine]
AUC(PO) [3]: 4.2 µM·h
Cmax [3]: 15 µM
MLM stability (%) [4]: 100%

Structure (SMILES): NCc1ccc(S(=O)(=O)N2CCc3ccccc32)s1 [2g, (5-(Indolin-1-ylsulfonyl)thiophen-2-yl)methanamine]
IC50 [1, 5]: 1.9 µM
fold more potent than HTS hit 2a (LOX IC50) [1]: ~10 fold

Structure (SMILES): NCc1ccc(S(=O)(=O)N2CCC[C@H]2C(N)=O)s1 [2d, (S)-1-(5-(Aminomethyl)thiophen-2-ylsulfonyl)pyrrolidine-2-carboxamide]
IC50 [1, 5]: 11 µM and 13 µM

Structure (SMILES): Cc1cc(CN)sc1S(=O)(=O)N1CCc2ccccc21 [5f, (5-(Indolin-1-ylsulfonyl)-4-methylthiophen-2-yl)methanamine]
IC50 [1, 5]: 12 µM and 13 µM

Structure (SMILES): CS(=O)(=O)c1ccc(S(=O)(=O)c2ccc(CN)s2)cc1 [3i, (5-(4-(Methylsulfonyl)phenylsulfonyl)thiophen-2-yl)methanamine]
MLM stability (%) [4]: 67%

Structure (SMILES): CS(=O)(=O)c1ccc(-c2ccc(CN)s2)cc1 [4e, (5-(4-(Methylsulfonyl)phenyl)thiophen-2-yl)methanamine Hydrochloride]
IC50 [1, 5]: 13 µM

Structure (SMILES): Cl.Cl.NCc1ccc(S(=O)(=O)Cc2ccccc2)nc1 [5a, (6-(Benzylsulfonyl)pyridin-3-yl)methanamine Dihydrochloride]
IC50 [1, 5]: 25 µM
fold weaker than aminomethylenethiophene counterpart 5b (LOX) ([1]; vs 5b): ~10 fold

Structure (SMILES): NCc1ccc(S(=O)(=O)N2CCOCC2)s1 [2i, (5-(Morpholinosulfonyl)thiophen-2-yl)methanamine]
IC50 [1, 5]: 20 µM and 25 µM

Structure (SMILES): NCc1ccc(S(=O)(=O)N2CCCCC2)s1 [2a, (5-(Piperidin-1-ylsulfonyl)thiophen-2-yl)methanamine]
IC50 ([1]; high-throughput screen hit, read-out: mean IC50 (LOX, HTS hit)): 19 µM
IC50 [1, 5]: 17 µM and 21 µM

Structure (SMILES): CCNC(=O)N1CCCN(S(=O)(=O)c2ccc(CN)s2)CC1 [2l, 4-(5-(Aminomethyl)thiophen-2-ylsulfonyl)-N-ethyl-1,4-diazepane-1-carboxamide]
IC50 [1, 5]: 2.1 µM

Structure (SMILES): NCc1ccc(S(=O)(=O)N2CCCC2c2ccccc2)s1 (stereo not shown) [2f, (5-(2-Phenylpyrrolidin-1-ylsulfonyl)thiophen-2-yl)methanamine]
IC50 [1, 5]: 3.8 µM

Structure (SMILES): NCc1ccc(C(=O)NCc2ccccc2)s1 [4d, 5-(Aminomethyl)-N-benzylthiophene-2-carboxamide]
IC50 [1, 5]: 20 µM and 25 µM

Structure (SMILES): CS(=O)(=O)N1CCCN(S(=O)(=O)c2ccc(CN)s2)CC1 [2m, (5-(4-(Methylsulfonyl)-1,4-diazepan-1-ylsulfonyl)thiophen-2-yl)methanamine]
IC50 [1, 5]: 0.93 µM
MLM stability (%) [4]: 37%

Structure (SMILES): CN1CCCN(S(=O)(=O)c2ccc(CN)s2)CC1 [2k, (5-(4-Methyl-1,4-diazepan-1-ylsulfonyl)thiophen-2-yl)methanamine]
IC50 [1, 5]: 3.1 µM

Structure (SMILES): NCc1ccc(C(=O)NCc2ccccc2)o1 [5e, 5-(Aminomethyl)-N-benzylfuran-2-carboxamide]
IC50 [1, 5]: 40 µM and 45 µM

Structure (SMILES): NCc1ccc(S(=O)(=O)NCc2ccccc2)s1 [4c, 5-(Aminomethyl)-N-benzylthiophene-2-sulfonamide]
IC50 [1, 5]: 15 µM

Structure (SMILES): CC(C)(C)Oc1cc(S(C)(=O)=O)cc(S(=O)(=O)c2ccc(CN)s2)c1 [9b, (5-((3-(tert-Butoxy)-5-(methylsulfonyl)phenyl)sulfonyl)thiophen-2-yl)methanamine]
AUC(PO) [3]: 2.3 µM·h
Cmax [3]: 6.3 µM
MLM stability (%) [4]: 67%

Structure (SMILES): Cl.Cl.NCc1ccc(S(=O)(=O)N2CCCNCC2)s1 [2j, (5-(1,4-Diazepan-1-ylsulfonyl)thiophen-2-yl)methanamine Dihydrochloride]
IC50 [1, 5]: 9.4 µM and 12.7 µM
fold more potent than HTS hit 2a (LOX IC50) [1]: ~2 fold

The remaining lines, values ahead:

LOX inhibition (in words) [1]: no inhibitory activity
IC50 [1, 5]: > 100 µM
Structure (SMILES): NCc1cscc1S(=O)(=O)c1ccc2ccccc2c1 [7b, (4-(Naphthalen-2-ylsulfonyl)thiophen-3-yl)methanamine]

IC50 [1, 5]: > 100 µM
Structure (SMILES): CNCc1ccc(S(=O)(=O)c2ccccc2)s1 [6a, N-Methyl-1-(5-(phenylsulfonyl)thiophen-2-yl)methanamine Hydrochloride]

IC50 [1, 5]: > 100 µM
Structure (SMILES): N#Cc1ccc(S(=O)(=O)c2ccccc2)s1 [6c, 5-(Phenylsulfonyl)thiophene-2-carbonitrile]

AUC(PO) [3]: 1.4 µM·h
Cmax [3]: 1.6 µM
MLM stability (%) [4]: 41%
Structure (SMILES): CS(=O)(=O)c1ccc(S(=O)(=O)c2ccc(CN)s2)cc1-c1ccccc1 [9k, (5-((6-(Methylsulfonyl)-[1,1′-biphenyl]-3-yl)sulfonyl)thiophen-2-yl)methanamine]

AUC(PO) [3]: 0.22 µM·h
Cmax [3]: 0.83 µM
MLM stability (%) [4]: 59%
Structure (SMILES): NCc1ccc(S(=O)(=O)c2cccc(S(=O)(=O)N3CCCC3)c2)s1 [8d, (5-((3-(Pyrrolidin-1-ylsulfonyl)phenyl)sulfonyl)thiophen-2-yl)methanamine]

IC50 [1, 5]: > 100 µM
Structure (SMILES): O=S(=O)(c1ccc2ccccc2c1)c1ccc(/C=N/O)s1 [6f, 5-(Naphthalen-2-ylsulfonyl)thiophene-2-carbaldehyde Oxime]

AUC(PO) [3]: 0.36 µM·h
Cmax [3]: 0.38 µM
MLM stability (%) [4]: 91%
Structure (SMILES): CC(=O)NCCS(=O)(=O)c1ccc(S(=O)(=O)c2ccc(CN)s2)cc1.Cl [8j, N-(2-((4-((5-(Aminomethyl)thiophen-2-yl)sulfonyl)phenyl)sulfonyl)ethyl)-acetamide Hydrochloride]

IC50 [1, 5]: > 100 µM
Structure (SMILES): N=C(N)c1ccc(S(=O)(=O)c2ccccc2)s1 [6d, 5-(Phenylsulfonyl)thiophene-2-carboximidamide Hydrochloride]

AUC(PO) [3]: 0.46 µM·h
Cmax [3]: 1.5 µM
MLM stability (%) [4]: 63%
Structure (SMILES): NCc1ccc(S(=O)(=O)c2cccc(S(=O)(=O)N3CCC[C@H]3CO)c2)s1 [8e, (S)-(1-((3-((5-(Aminomethyl)thiophen-2-yl)sulfonyl)phenyl)sulfonyl)pyrrolidin-2-yl)methanol]

AUC(PO) [3]: 2.8 µM·h
Cmax [3]: 9.6 µM
MLM stability (%) [4]: 90%
Structure (SMILES): Cl.Cl.Cn1cc(-c2cc(S(=O)(=O)c3ccc(CN)s3)ccc2S(C)(=O)=O)cn1 [9j, (5-((3-(1-Methyl-1H-pyrazol-4-yl)-4-(methylsulfonyl)phenyl)sulfonyl)thiophen-2-yl)methanamine Dihydrochloride]

AUC(PO) [3]: 6.5 µM·h
Cmax [3]: 16 µM
MLM stability (%) [4]: 68%
Structure (SMILES): CC(C)(C)c1cc(S(C)(=O)=O)cc(S(=O)(=O)c2ccc(CN)s2)c1 [9a, (5-((3-(tert-Butyl)-5-(methylsulfonyl)phenyl)sulfonyl)thiophen-2-yl)methanamine]

LOX inhibition (in words) [1]: no inhibitory activity
IC50 [1, 5]: > 100 µM
Structure (SMILES): NCc1sccc1S(=O)(=O)c1ccc2ccccc2c1 [7a, (3-(Naphthalen-2-ylsulfonyl)thiophen-2-yl)methanamine]

IC50 [1, 5]: > 100 µM
Structure (SMILES): NC(=O)c1ccc(S(=O)(=O)c2ccccc2)s1 [6e, 5-(Phenylsulfonyl)thiophene-2-carboxamide]

IC50 [1, 5]: > 100 µM
Structure (SMILES): CC(N)c1ccc(S(=O)(=O)c2ccccc2)s1 (stereo not shown) [6b, 1-(5-(Phenylsulfonyl)thiophen-2-yl)ethanamine]
